In ChEMBL document CHEMBL1131843, “Synthesis and biological evaluation of novel 1beta-methylcarbapenems having a new moiety at C-2” (Bioorg Med Chem Lett, 1999):
≈ marks a conversion by molar mass, not a printed value.

How the values were obtained:
Enterococcus faecium = assay: In vitro antibacterial activity against Streptococcus faecium MD 8b; type: functional
Enterobacter cloacae = assay: In vitro antibacterial activity against Enterobacter cloacae 1321E; type: functional
Staphylococcus aureus = assay: In vitro antibacterial activity against Staphylococcus aureus SG 511; type: functional
Escherichia coli [1] = assay: In vitro antibacterial activity against Escherichia coli 078; type: functional
Escherichia coli [2] = assay: In vitro antibacterial activity against Escherichia coli 1507E; type: functional
Pseudomonas aeruginosa [3] = assay: In vitro antibacterial activity against Pseudomonas aeruginosa 1771M; type: functional
Klebsiella aerogenes = assay: In vitro antibacterial activity against Klebsiella aerogenes 1522E; type: functional
Salmonella typhimurium = assay: In vitro antibacterial activity against Salmonella Typhimurium; type: functional, Salmonella enterica subsp. enterica serovar Typhimurium
Streptococcus pyogenes = assay: In vitro antibacterial activity against Streptococcus pyogenes 77A; type: functional
Pseudomonas aeruginosa [4] = assay: In vitro antibacterial activity against Pseudomonas aeruginosa 1592E; type: functional
[5] = target: T1, Dipeptidase 1 (Sus scrofa) (UniProt P22412); assay: Relative hydrolysis to meropenem by partially purified porcine renal Dehydropeptidase-1 was reported.; design: scale not given: the % may be the effect or the level left
T1 sequence (whole entry): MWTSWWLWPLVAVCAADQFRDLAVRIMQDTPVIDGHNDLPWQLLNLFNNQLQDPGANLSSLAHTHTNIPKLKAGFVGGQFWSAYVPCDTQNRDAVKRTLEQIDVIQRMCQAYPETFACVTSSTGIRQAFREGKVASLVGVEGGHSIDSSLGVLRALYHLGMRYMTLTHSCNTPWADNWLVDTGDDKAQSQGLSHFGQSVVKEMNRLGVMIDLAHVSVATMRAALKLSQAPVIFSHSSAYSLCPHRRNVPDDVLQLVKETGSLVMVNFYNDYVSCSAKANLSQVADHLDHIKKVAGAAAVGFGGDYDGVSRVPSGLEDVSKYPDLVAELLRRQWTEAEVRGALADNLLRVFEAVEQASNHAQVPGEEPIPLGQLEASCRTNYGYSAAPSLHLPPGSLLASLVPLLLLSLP

[6] = Half life was determined in mice at a single subcutaneous administration of 40 mg/kg (n=4); type: ADME, organism-based; design: dose 40 mg/kg, route subcutaneous; details: mouse, in vivo, sc
Mus musculus [7] = assay: In vivo therapeutic efficacy was determined against Streptococcus pyogenes 77A by a single sc administration in mice; type: functional; details: read-out: PD50
[8] = Area under curve (AUC) was determined in mice at a single subcutaneous administration of 40 mg/kg (n=4); type: ADME, organism-based; design: dose 40 mg/kg, route subcutaneous; details: mouse, in vivo, sc
Mus musculus [9] = assay: In vivo therapeutic efficacy was determined against Staphylococcus aureus Y-80-1953 by a single sc administration in mice; type: functional; details: read-out: PD50
Mus musculus [10] = assay: In vivo therapeutic efficacy was determined against Pseudomonas aeruginosa 1771M by a single sc administration in mice; type: functional; details: read-out: PD50
Mus musculus [11] = assay: In vivo therapeutic efficacy was determined against Escherichia coli 078 by a single sc administration in mice; type: functional; details: read-out: PD50
[12] = Maximum time was determined in mice at a single subcutaneous administration of 40 mg/kg (n=4); type: ADME, organism-based; design: dose 40 mg/kg, route subcutaneous; details: mouse, in vivo, sc
[13] = Maximum plasma concentration was determined in mice at a single subcutaneous administration of 40 mg/kg (n=4); type: ADME, organism-based; design: dose 40 mg/kg, route subcutaneous; details: mouse, sc
[14] = Enterococcus faecium, read-out: MIC
[15] = Enterobacter cloacae, read-out: MIC
[16] = Staphylococcus aureus, read-out: MIC
[17] = Escherichia coli, read-out: MIC
[18] = Pseudomonas aeruginosa, read-out: MIC
[19] = Klebsiella aerogenes, read-out: MIC
[20] = Salmonella enterica, read-out: MIC
[21] = Streptococcus pyogenes, read-out: MIC

C[C@@H](O)[C@H]1C(=O)N2C(C(=O)O)=C(S[C@H]3CN[C@H](C(=O)N4C[C@@H](O)[C@H](O)C4)C3)[C@H](C)[C@H]12
MIC (Enterococcus faecium; [14]): 12.5 µg/mL (≈ 28.3 µM) | MIC (Enterobacter cloacae; [15]): 0.195 µg/mL (≈ 0.442 µM) | MIC (Staphylococcus aureus; [16]): 0.195 µg/mL (≈ 0.442 µM) | MIC (Escherichia coli [1]; [17]): 0.098 µg/mL (≈ 0.222 µM) | MIC (Escherichia coli [2]): 0.195 µg/mL (≈ 0.442 µM) | MIC (Pseudomonas aeruginosa [3]; [18]): 0.391 µg/mL (≈ 0.886 µM) | MIC (Klebsiella aerogenes; [19]): 0.195 µg/mL (≈ 0.442 µM) | MIC (Salmonella typhimurium; [20]): 0.391 µg/mL (≈ 0.886 µM) | MIC (Streptococcus pyogenes; [21]): 0.013 µg/mL (≈ 0.0294 µM) | MIC (Pseudomonas aeruginosa [4]; [18]): 100 µg/mL (≈ 226 µM)

C[C@@H](O)[C@H]1C(=O)N2C(C(=O)O)=C(S[C@H]3CN[C@H](C(=O)N4C[C@H](O)[C@@H](O)C4)C3)[C@H](C)[C@H]12
MIC (Enterococcus faecium; [14]): 25 µg/mL (≈ 56.6 µM) | MIC (Enterobacter cloacae; [15]): 0.195 µg/mL (≈ 0.442 µM) | MIC (Staphylococcus aureus; [16]): 0.195 µg/mL (≈ 0.442 µM) | MIC (Escherichia coli [1]; [17]): 0.098 µg/mL (≈ 0.222 µM) | MIC (Escherichia coli [2]): 0.098 µg/mL (≈ 0.222 µM) | MIC (Pseudomonas aeruginosa [3]; [18]): 0.781 µg/mL (≈ 1.77 µM) | MIC (Klebsiella aerogenes; [19]): 0.195 µg/mL (≈ 0.442 µM) | MIC (Salmonella typhimurium; [20]): 0.195 µg/mL (≈ 0.442 µM) | MIC (Streptococcus pyogenes; [21]): 0.025 µg/mL (≈ 0.0566 µM) | MIC (Pseudomonas aeruginosa [4]; [18]): 100 µg/mL (≈ 226 µM)

CC(=O)O[C@H]1CN(C(=O)[C@@H]2C[C@H](SC3=C(C(=O)O)N4C(=O)[C@H]([C@@H](C)O)[C@H]4[C@H]3C)CN2)C[C@@H]1OC(C)=O (stereo in doubt; 1a) [listing 1 of 2 here]
Stability [5]: 63%

C[C@@H](O)[C@H]1C(=O)N2C(C(=O)O)=C(S[C@@H]3CN[C@H](C(=O)N(C)C)C3)[C@H](C)[C@H]12 [MEROPENEM]
MIC (Enterococcus faecium; [14]): 12.5 µg/mL (≈ 32.6 µM) | MIC (Enterobacter cloacae; [15]): 0.025 µg/mL (≈ 0.0652 µM) | MIC (Staphylococcus aureus; [16]): 0.098 µg/mL (≈ 0.256 µM) | MIC (Escherichia coli [1]; [17]): 0.013 µg/mL (≈ 0.0339 µM) | MIC (Escherichia coli [2]): 0.025 µg/mL (≈ 0.0652 µM) | half-life [6]: 16.2 min | ED50 (Mus musculus [7]): 4.55 mg/kg | AUC [8]: 6860 ng·h/mL | MIC (Pseudomonas aeruginosa [3]; [18]): 0.049 µg/mL (≈ 0.128 µM) | ED50 (Mus musculus [9]): 11.1 mg/kg | ED50 (Mus musculus [10]): 4.26 mg/kg | ED50 (Mus musculus [11]): 0.65 mg/kg | MIC (Klebsiella aerogenes; [19]): 0.049 µg/mL (≈ 0.128 µM) | Tmax [12]: 10.2 min | MIC (Salmonella typhimurium; [20]): 0.025 µg/mL (≈ 0.0652 µM) | MIC (Streptococcus pyogenes; [21]): 0.002 µg/mL (≈ 0.00522 µM) | Cmax [13]: 15600 ng/mL | MIC (Pseudomonas aeruginosa [4]; [18]): 0.195 µg/mL (≈ 0.509 µM) | Stability [5]: 100%

CC(=O)O[C@H]1CN(C(=O)[C@@H]2C[C@H](SC3=C(C(=O)O)N4C(=O)[C@H]([C@@H](C)O)[C@H]4[C@H]3C)CN2)C[C@@H]1OC(C)=O (stereo in doubt; 1a) [listing 2 of 2 here]
MIC (Enterococcus faecium; [14]): 6.25 µg/mL (≈ 11.9 µM) | MIC (Enterobacter cloacae; [15]): 0.013 µg/mL (≈ 0.0247 µM) | MIC (Staphylococcus aureus; [16]): 0.098 µg/mL (≈ 0.186 µM) | MIC (Escherichia coli [1]; [17]): 0.013 µg/mL (≈ 0.0247 µM) | MIC (Escherichia coli [2]): 0.025 µg/mL (≈ 0.0476 µM) | half-life [6]: 15 min | ED50 (Mus musculus [7]): 4.79 mg/kg | AUC [8]: 6830 ng·h/mL | MIC (Pseudomonas aeruginosa [3]; [18]): 0.098 µg/mL (≈ 0.186 µM) | ED50 (Mus musculus [9]): 2.18 mg/kg | ED50 (Mus musculus [10]): 3.93 mg/kg | ED50 (Mus musculus [11]): 0.94 mg/kg | MIC (Klebsiella aerogenes; [19]): 0.049 µg/mL (≈ 0.0932 µM) | Tmax [12]: 10.2 min | MIC (Salmonella typhimurium; [20]): 0.049 µg/mL (≈ 0.0932 µM) | MIC (Streptococcus pyogenes; [21]): 0.007 µg/mL (≈ 0.0133 µM) | Cmax [13]: 16600 ng/mL | MIC (Pseudomonas aeruginosa [4]): 0.195 µg/mL (≈ 0.371 µM)

C[C@@H](O)[C@H]1C(=O)N2C(C(=O)O)=C(S[C@@H]3CN[C@H](C(=O)N4C[C@H](OC(N)=O)[C@@H](OC(N)=O)C4)C3)[C@H](C)[C@H]12
MIC (Enterococcus faecium; [14]): 6.25 µg/mL (≈ 11.8 µM) | MIC (Enterobacter cloacae; [15]): 0.025 µg/mL (≈ 0.0474 µM) | MIC (Staphylococcus aureus; [16]): 0.195 µg/mL (≈ 0.37 µM) | MIC (Escherichia coli [1]; [17]): 0.025 µg/mL (≈ 0.0474 µM) | MIC (Escherichia coli [2]): 0.025 µg/mL (≈ 0.0474 µM) | MIC (Pseudomonas aeruginosa [3]; [18]): 0.391 µg/mL (≈ 0.741 µM) | MIC (Klebsiella aerogenes; [19]): 0.049 µg/mL (≈ 0.0929 µM) | MIC (Salmonella typhimurium; [20]): 0.049 µg/mL (≈ 0.0929 µM) | MIC (Streptococcus pyogenes; [21]): 0.025 µg/mL (≈ 0.0474 µM) | MIC (Pseudomonas aeruginosa [4]; [18]): 0.781 µg/mL (≈ 1.48 µM) | Stability [5]: 53%

CC(=O)O[C@@H]1CN(C(=O)[C@@H]2C[C@H](SC3=C(C(=O)O)N4C(=O)[C@H]([C@@H](C)O)[C@H]4[C@H]3C)CN2)C[C@H]1OC(C)=O
MIC (Enterococcus faecium; [14]): 6.25 µg/mL (≈ 11.9 µM) | MIC (Enterobacter cloacae; [15]): 0.013 µg/mL (≈ 0.0247 µM) | MIC (Staphylococcus aureus; [16]): 0.195 µg/mL (≈ 0.371 µM) | MIC (Escherichia coli [1]; [17]): 0.013 µg/mL (≈ 0.0247 µM) | MIC (Escherichia coli [2]): 0.025 µg/mL (≈ 0.0476 µM) | MIC (Pseudomonas aeruginosa [3]; [18]): 0.098 µg/mL (≈ 0.186 µM) | MIC (Klebsiella aerogenes; [19]): 0.049 µg/mL (≈ 0.0932 µM) | MIC (Salmonella typhimurium; [20]): 0.049 µg/mL (≈ 0.0932 µM) | MIC (Streptococcus pyogenes; [21]): 0.007 µg/mL (≈ 0.0133 µM) | MIC (Pseudomonas aeruginosa [4]; [18]): 0.098 µg/mL (≈ 0.186 µM) | Stability [5]: 50%

C[C@@H](O)[C@H]1C(=O)N2C(C(=O)O)=C(SCCNC=N)C[C@H]12 [IMIPENEM ANHYDROUS]
MIC (Enterococcus faecium; [14]): 1.56 µg/mL (≈ 5.22 µM) | MIC (Enterobacter cloacae; [15]): 0.195 µg/mL (≈ 0.651 µM) | MIC (Staphylococcus aureus; [16]): 0.013 µg/mL (≈ 0.0434 µM) | MIC (Escherichia coli [1]; [17]): 0.098 µg/mL (≈ 0.327 µM) | MIC (Escherichia coli [2]): 0.195 µg/mL (≈ 0.651 µM) | MIC (Pseudomonas aeruginosa [3]; [18]): 0.195 µg/mL (≈ 0.651 µM) | MIC (Klebsiella aerogenes; [19]): 0.391 µg/mL (≈ 1.31 µM) | MIC (Salmonella typhimurium; [20]): 0.781 µg/mL (≈ 2.61 µM) | MIC (Streptococcus pyogenes; [21]): 0.004 µg/mL (≈ 0.0134 µM) | MIC (Pseudomonas aeruginosa [4]; [18]): 0.781 µg/mL (≈ 2.61 µM) | Stability [5]: 19%

CC(=O)O[C@H]1CN(C(=O)[C@@H]2C[C@H](SC3=C(C(=O)O)N4C(=O)[C@H]([C@@H](C)O)[C@H]4[C@H]3C)CN2)C[C@@H]1OC(C)=O (stereo in doubt; 1f) [listing 1 of 2 here]
MIC (Enterococcus faecium): 6.25 µg/mL (≈ 11.9 µM) | MIC (Enterobacter cloacae): 0.013 µg/mL (≈ 0.0247 µM) | MIC (Staphylococcus aureus): 0.195 µg/mL (≈ 0.371 µM) | MIC (Escherichia coli [1]): 0.025 µg/mL (≈ 0.0476 µM) | MIC (Pseudomonas aeruginosa [3]): 0.195 µg/mL (≈ 0.371 µM) | MIC (Klebsiella aerogenes): 0.049 µg/mL (≈ 0.0932 µM) | MIC (Salmonella typhimurium): 0.049 µg/mL (≈ 0.0932 µM) | MIC (Streptococcus pyogenes): 0.007 µg/mL (≈ 0.0133 µM) | MIC (Pseudomonas aeruginosa [4]): 1.563 µg/mL (≈ 2.97 µM)

CC(=O)O[C@H]1CN(C(=O)[C@@H]2C[C@H](SC3=C(C(=O)O)N4C(=O)[C@H]([C@@H](C)O)[C@H]4[C@H]3C)CN2)C[C@@H]1OC(C)=O (stereo in doubt; 1f) [listing 2 of 2 here]
Stability [5]: 66%
